Columns and labels:
Test in all cases: biochemical
Parameters in all cases: DiscoverX kinase panel, active-site competition binding (KINOMEscan type), percent of control at one concentration
Conditions in all cases: competition binding, percent of control
[1] = target: SRMS (Homo sapiens, UniProt Q9H3Y6)
[2] = target: MELK (Homo sapiens, UniProt Q14680)
[3] = target: PRKCI (Homo sapiens, UniProt P41743)
[4] = target: T1, ABL1-nonphosphorylated (Homo sapiens, UniProt P00519)
T1 construct: nonphosphorylated

[5] = target: WNK4 (Homo sapiens, UniProt Q96J92)
[6] = target: EGFR(T790M) (Homo sapiens, UniProt P00533, T790M)
[7] = target: NEK11 (Homo sapiens, UniProt Q8NG66)
[8] = target: MAK (Homo sapiens, UniProt P20794)
[9] = target: AURKB (Homo sapiens, UniProt Q96GD4)
[10] = target: BRAF(V600E) (Homo sapiens, UniProt P15056, V600E)
[11] = target: MARK2 (Homo sapiens, UniProt Q7KZI7)
[12] = target: CAMK2B (Homo sapiens, UniProt Q13554)
[13] = target: PIK3CD (Homo sapiens, UniProt O00329)
[14] = target: HIPK3 (Homo sapiens, UniProt Q9H422)
[15] = target: HUNK (Homo sapiens, UniProt P57058)
[16] = target: PIP5K1C (Homo sapiens, UniProt O60331)
[17] = target: T2, MEK3 (Homo sapiens, UniProt P46734)
T2 construct: gene MAP2K3

[18] = target: T3, CDC2L2 (Homo sapiens, UniProt Q9UQ88)
T3 construct: gene CDK11A

[19] = target: T4, YSK4 (Homo sapiens, UniProt Q56UN5)
T4 construct: gene MAP3K19

[20] = target: FLT1 (Homo sapiens, UniProt P17948)
[21] = target: T5, CTK (Homo sapiens, UniProt P42679)
T5 construct: gene MATK

[22] = target: T6, DRAK2 (Homo sapiens, UniProt O94768)
T6 construct: gene STK17B
T6 sequence (O94768 whole entry): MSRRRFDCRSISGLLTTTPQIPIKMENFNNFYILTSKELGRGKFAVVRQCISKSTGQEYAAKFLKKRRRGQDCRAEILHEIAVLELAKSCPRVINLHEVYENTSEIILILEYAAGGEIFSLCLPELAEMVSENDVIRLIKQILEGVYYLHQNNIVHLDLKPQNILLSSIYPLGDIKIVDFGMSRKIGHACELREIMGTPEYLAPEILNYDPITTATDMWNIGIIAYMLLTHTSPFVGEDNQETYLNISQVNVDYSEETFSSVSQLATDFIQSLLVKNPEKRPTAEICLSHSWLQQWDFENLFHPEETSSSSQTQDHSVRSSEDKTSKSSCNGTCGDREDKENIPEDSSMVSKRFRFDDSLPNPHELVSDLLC

Chain of WNK4 (Q96J92 whole entry): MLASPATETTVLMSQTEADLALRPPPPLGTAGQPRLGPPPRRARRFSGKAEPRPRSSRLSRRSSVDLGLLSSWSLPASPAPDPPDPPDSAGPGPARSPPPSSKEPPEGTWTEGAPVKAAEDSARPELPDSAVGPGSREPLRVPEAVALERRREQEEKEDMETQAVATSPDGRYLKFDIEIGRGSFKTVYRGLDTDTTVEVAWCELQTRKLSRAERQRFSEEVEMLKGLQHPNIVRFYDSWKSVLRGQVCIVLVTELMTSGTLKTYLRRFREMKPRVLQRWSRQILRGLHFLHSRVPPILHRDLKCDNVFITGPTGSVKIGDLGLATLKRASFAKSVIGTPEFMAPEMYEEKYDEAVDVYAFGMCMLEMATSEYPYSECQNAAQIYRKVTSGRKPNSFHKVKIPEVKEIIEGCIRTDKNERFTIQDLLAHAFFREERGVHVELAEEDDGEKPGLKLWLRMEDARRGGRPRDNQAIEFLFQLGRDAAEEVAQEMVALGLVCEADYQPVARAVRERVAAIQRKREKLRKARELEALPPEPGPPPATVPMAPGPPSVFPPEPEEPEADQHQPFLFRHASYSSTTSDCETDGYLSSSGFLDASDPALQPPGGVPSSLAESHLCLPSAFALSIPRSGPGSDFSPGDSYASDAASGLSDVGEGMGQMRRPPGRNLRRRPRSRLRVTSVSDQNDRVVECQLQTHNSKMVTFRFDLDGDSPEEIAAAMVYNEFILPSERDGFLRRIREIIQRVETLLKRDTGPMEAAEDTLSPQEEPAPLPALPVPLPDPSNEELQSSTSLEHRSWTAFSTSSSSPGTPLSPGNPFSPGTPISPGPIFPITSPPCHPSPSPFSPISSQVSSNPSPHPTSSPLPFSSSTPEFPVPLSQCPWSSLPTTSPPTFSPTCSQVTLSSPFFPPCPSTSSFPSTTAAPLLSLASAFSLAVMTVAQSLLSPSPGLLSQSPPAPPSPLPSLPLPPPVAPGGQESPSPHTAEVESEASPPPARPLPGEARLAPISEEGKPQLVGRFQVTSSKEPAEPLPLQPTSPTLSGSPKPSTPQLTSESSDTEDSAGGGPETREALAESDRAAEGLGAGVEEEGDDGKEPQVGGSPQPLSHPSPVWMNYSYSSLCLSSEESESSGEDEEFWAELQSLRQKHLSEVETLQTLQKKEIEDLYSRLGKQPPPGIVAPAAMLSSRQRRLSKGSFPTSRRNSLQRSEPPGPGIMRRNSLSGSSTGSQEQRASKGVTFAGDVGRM
Chain of CAMK2B (Q13554 whole entry): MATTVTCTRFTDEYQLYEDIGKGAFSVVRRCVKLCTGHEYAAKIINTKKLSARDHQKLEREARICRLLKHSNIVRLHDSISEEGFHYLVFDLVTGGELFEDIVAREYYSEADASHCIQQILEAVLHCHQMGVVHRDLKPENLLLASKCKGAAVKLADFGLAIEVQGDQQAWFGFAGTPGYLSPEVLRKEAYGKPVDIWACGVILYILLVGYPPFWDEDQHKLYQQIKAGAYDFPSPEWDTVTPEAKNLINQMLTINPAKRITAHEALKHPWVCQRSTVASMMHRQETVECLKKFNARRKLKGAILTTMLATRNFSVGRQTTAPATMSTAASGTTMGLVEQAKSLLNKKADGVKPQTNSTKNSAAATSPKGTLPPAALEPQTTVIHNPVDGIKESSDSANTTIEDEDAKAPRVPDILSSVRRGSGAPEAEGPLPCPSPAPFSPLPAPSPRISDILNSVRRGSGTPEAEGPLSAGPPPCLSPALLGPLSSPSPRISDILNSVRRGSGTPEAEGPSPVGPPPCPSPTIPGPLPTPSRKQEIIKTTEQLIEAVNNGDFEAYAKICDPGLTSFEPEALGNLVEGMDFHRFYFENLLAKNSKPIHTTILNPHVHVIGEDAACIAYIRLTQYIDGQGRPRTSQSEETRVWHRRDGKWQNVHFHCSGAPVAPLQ
Chain of HUNK (P57058 whole entry): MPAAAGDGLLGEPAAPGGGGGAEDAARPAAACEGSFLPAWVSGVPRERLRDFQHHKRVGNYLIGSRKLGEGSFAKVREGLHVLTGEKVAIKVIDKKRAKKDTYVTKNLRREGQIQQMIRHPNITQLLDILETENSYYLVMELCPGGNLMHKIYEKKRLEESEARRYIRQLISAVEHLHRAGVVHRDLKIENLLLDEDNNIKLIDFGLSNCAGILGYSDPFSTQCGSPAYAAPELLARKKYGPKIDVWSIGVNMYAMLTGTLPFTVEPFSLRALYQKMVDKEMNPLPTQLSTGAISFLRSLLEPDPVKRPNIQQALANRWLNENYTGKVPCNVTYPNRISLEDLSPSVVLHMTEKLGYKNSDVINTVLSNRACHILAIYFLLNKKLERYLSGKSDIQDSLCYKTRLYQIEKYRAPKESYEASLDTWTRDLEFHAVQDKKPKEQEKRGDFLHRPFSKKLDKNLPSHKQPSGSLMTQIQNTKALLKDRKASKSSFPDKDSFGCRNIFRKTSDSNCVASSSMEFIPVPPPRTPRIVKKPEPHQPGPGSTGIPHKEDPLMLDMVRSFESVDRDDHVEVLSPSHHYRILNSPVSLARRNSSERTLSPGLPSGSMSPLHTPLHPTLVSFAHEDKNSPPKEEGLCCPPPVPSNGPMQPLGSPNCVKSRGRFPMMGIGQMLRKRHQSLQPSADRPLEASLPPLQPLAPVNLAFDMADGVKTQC
Chain of MAK (P20794 whole entry): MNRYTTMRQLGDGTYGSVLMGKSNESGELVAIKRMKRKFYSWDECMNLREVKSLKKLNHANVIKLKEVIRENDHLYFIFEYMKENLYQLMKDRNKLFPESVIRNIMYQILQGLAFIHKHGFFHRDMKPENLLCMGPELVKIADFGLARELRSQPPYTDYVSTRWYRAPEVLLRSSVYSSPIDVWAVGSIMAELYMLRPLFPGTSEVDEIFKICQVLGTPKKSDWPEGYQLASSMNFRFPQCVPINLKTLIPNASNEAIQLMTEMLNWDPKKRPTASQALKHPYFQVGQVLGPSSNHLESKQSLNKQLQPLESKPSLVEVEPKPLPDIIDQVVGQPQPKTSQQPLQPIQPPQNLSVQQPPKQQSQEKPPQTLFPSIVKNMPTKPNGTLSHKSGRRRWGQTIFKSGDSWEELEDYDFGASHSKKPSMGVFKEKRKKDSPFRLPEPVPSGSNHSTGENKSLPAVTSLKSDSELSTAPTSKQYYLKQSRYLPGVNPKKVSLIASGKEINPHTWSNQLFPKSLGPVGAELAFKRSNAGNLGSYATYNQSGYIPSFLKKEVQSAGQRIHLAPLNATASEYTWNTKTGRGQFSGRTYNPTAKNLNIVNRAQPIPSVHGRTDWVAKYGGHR
Chain of HIPK3 (Q9H422 whole entry): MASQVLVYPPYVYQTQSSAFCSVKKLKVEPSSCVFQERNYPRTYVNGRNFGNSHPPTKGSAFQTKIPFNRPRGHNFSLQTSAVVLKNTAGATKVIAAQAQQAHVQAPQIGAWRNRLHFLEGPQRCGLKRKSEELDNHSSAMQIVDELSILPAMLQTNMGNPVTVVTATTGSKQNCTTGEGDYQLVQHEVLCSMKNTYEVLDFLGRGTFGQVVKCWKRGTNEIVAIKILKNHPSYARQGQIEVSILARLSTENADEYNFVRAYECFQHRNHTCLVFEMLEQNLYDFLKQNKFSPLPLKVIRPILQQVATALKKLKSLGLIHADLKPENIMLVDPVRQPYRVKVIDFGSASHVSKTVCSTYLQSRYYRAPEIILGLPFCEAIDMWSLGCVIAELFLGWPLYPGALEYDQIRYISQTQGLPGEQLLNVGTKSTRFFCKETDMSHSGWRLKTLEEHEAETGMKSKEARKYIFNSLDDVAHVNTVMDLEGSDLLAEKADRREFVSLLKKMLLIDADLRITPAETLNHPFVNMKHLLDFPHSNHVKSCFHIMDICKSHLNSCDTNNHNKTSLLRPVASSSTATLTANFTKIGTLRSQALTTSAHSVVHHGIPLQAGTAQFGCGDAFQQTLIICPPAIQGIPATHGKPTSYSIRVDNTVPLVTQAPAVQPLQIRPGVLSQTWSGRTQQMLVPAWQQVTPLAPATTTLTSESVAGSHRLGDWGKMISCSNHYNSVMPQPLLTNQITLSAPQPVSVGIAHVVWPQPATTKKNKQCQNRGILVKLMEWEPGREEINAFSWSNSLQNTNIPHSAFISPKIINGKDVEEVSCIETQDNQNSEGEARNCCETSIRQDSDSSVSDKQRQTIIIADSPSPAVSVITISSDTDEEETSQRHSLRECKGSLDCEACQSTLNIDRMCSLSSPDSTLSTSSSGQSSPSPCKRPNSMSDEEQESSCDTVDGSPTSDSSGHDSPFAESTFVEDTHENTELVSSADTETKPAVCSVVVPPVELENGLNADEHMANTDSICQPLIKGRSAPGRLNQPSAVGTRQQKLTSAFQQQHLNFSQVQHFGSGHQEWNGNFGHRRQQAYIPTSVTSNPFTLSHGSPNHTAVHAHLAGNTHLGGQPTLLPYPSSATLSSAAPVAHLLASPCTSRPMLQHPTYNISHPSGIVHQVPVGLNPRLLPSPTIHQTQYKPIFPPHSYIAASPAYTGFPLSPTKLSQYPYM

COc1cc2c(cn1)N(C)C(=O)[C@@H](NC(=O)c1nc3n(n1)[C@H](c1ccccc1)CC3)CC2 [GNE684, (S)-N-((S)-7-methoxy-1-methyl-2-oxo-2,3,4,5-tetrahydro-1H-pyrido[3,4-b]azepin-3-yl)-5-phenyl-6,7-dihydro-5H-pyrrolo[1,2-b][1,2,4]triazole-2-carboxamide]
remaining binding at 10 µM [1]: 100% | remaining binding at 10 µM [2]: 93% | remaining binding at 10 µM [3]: 95% | remaining binding at 10 µM [4]: 67% | remaining binding at 10 µM [5]: 100% | remaining binding at 10 µM [6]: 100% | remaining binding at 10 µM [7]: 100% | remaining binding at 10 µM [8]: 96% | remaining binding at 10 µM [9]: 84% | remaining binding at 10 µM [10]: 100% | remaining binding at 10 µM [11]: 100% | remaining binding at 10 µM [12]: 76% | remaining binding at 10 µM [13]: 78% | remaining binding at 10 µM [14]: 100% | remaining binding at 10 µM [15]: 94% | remaining binding at 10 µM [16]: 100% | remaining binding at 10 µM [17]: 87% | remaining binding at 10 µM [18]: 98% | remaining binding at 10 µM [19]: 92% | remaining binding at 10 µM [20]: 100% | remaining binding at 10 µM [21]: 93% | remaining binding at 10 µM [22]: 100%

— PMC7206119, “RIP1 inhibition blocks inflammatory diseases but not tumor growth or metastases” (Cell Death and Differentiation, 2019)
